This note sets out measurements from ChEMBL document CHEMBL6071184, “Lasamide, a Potent Human Carbonic Anhydrase Inhibitor from the Market: Inhibition Profiling and Crystallographic Studies” (ACS Med Chem Lett, 2024).

As a reminder, the Ki is a measure of affinity in units of concentration, obtained from inhibition or displacement.

One assay addresses Carbonic anhydrase 13 (Mus musculus, UniProt Q9D6N1). Briefly: Inhibition of mouse CA XIII-catalysed CO2 hydration by stopped-flow technique.
A further assay addresses Carbonic anhydrase 7 (Homo sapiens, UniProt P43166).
Another assay concerns the target Carbonic anhydrase 14 (Homo sapiens, UniProt Q9ULX7). Briefly: Inhibition of full-length recombinant human CA XIV-catalysed CO2 hydration by stopped-flow technique.
The target in assay [1] is T1, Carbonic anhydrase 6 (Homo sapiens, UniProt P23280).
T1 sequence (P23280 whole entry): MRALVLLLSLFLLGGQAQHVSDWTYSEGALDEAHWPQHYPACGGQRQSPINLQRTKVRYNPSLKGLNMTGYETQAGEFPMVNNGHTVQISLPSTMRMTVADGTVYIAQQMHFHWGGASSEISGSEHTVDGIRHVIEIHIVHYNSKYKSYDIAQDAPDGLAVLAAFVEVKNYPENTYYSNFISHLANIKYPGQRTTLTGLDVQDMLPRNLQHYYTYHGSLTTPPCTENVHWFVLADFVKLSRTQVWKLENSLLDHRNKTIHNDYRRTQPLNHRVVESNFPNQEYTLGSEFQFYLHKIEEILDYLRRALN
Description: Inhibition of full-length recombinant human milk CA VI-catalysed CO2 hydration by stopped-flow technique
The next assay addresses Carbonic anhydrase 4 (Homo sapiens, UniProt P22748). Briefly: Inhibition of full-length recombinant human CA IV-catalysed CO2 hydration by stopped-flow technique.
In assay [2] the target is T1, Carbonic anhydrase 6. The source holds these as a separate data set.
Description: Inhibition of full-length recombinant human saliva CA VI-catalysed CO2 hydration by stopped-flow technique
A further assay deals with Carbonic anhydrase 3 (Homo sapiens, UniProt P07451).
Sequence of Carbonic anhydrase 3 (P07451 whole entry): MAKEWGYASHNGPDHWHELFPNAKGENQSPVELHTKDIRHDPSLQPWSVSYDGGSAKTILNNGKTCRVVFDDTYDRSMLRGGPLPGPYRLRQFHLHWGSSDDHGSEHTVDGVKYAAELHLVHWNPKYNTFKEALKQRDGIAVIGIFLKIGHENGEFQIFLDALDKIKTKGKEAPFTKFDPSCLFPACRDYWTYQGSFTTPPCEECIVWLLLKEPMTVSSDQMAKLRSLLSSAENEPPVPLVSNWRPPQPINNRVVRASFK
Assay [3] addresses Carbonic anhydrase 5B, mitochondrial (Homo sapiens, UniProt Q9Y2D0). Briefly: Inhibition of full-length recombinant human CA VB-catalysed CO2 hydration by stopped-flow technique.
In assay [4] the target is Carbonic anhydrase 5A, mitochondrial (Homo sapiens, UniProt P35218).
Sequence of Carbonic anhydrase 5A, mitochondrial (P35218 whole entry): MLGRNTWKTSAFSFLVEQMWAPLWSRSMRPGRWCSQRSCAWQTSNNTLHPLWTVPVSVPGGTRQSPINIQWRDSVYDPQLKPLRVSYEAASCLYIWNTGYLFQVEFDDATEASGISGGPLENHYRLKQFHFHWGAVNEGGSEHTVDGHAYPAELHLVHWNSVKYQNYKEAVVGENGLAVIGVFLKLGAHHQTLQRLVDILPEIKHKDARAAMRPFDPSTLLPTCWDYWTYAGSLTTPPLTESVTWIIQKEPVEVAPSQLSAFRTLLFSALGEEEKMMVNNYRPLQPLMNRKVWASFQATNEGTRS
Description: Inhibition of full-length recombinant human CA VA-catalysed CO2 hydration by stopped-flow technique

Sequence of Carbonic anhydrase 5B, mitochondrial (Q9Y2D0 whole entry): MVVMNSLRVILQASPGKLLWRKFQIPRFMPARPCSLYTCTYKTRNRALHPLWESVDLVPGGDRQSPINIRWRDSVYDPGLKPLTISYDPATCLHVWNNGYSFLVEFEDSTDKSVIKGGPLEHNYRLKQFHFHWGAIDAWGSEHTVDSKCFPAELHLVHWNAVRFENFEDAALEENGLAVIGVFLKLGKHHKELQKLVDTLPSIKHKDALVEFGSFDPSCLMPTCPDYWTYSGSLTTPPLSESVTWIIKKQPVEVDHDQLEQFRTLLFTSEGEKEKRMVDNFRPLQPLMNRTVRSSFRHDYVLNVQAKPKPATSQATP
Sequence of Carbonic anhydrase 14 (Q9ULX7 whole entry): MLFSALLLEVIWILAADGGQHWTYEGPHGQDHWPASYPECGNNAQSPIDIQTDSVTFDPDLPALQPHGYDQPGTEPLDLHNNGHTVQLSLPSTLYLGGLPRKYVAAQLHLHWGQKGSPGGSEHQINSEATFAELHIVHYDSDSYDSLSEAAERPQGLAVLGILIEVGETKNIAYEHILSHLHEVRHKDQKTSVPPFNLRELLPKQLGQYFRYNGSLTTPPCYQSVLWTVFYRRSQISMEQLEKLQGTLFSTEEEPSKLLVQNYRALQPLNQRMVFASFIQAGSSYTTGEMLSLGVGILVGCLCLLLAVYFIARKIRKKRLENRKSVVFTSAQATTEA
Sequence of Carbonic anhydrase 7 (P43166 whole entry): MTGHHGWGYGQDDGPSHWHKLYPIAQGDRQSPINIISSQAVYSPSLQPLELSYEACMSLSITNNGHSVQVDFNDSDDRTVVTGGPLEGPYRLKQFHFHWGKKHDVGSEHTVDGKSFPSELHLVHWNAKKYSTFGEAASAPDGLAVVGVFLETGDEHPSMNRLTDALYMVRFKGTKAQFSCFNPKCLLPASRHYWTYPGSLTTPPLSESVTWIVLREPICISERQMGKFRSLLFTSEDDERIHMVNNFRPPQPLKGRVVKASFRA
Sequence of Carbonic anhydrase 13 (Q9D6N1 whole entry): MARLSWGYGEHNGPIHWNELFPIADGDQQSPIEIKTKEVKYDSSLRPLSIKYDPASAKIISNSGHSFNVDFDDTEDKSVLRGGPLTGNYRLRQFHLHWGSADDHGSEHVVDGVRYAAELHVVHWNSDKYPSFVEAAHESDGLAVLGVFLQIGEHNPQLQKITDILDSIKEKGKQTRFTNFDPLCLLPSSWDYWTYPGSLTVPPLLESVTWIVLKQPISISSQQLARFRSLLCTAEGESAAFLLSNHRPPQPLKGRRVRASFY
Sequence of Carbonic anhydrase 4 (P22748 whole entry): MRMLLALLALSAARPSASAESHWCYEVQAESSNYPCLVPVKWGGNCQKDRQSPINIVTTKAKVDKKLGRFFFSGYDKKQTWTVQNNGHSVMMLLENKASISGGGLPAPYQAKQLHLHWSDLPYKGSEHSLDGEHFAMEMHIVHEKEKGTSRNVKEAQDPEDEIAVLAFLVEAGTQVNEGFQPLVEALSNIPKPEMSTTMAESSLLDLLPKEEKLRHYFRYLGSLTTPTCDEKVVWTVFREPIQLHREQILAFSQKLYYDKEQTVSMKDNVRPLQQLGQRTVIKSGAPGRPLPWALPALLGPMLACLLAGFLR
Description for Carbonic anhydrase 3: Inhibition of full-length recombinant human CA III-catalysed CO2 hydration by stopped-flow technique
Description for Carbonic anhydrase 7: Inhibition of full-length recombinant human CA VII-catalysed CO2 hydration by stopped-flow technique

`NS(=O)(=O)c1cc(C(=O)O)c(Cl)cc1Cl`: the inhibition constant Ki on Carbonic anhydrase 13 worked out at 9.37 nM; at Carbonic anhydrase 7, 6.63 nM; on Carbonic anhydrase 14 it was 11.9 nM; on Carbonic anhydrase 6 [1], 8.51 nM; at Carbonic anhydrase 4, 1.91 nM; on Carbonic anhydrase 6 [2], 11.7 nM. The inhibitory constant (Ki) at Carbonic anhydrase 3 is above 50000 nM; in assay [3] it was 14.2 nM; in [4] it was 3.49 nM.
